Experimental data reported in PubChem BioAssay (NCI).
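In this assay, cells in 96-well plates receive the compound at five concentrations for 48 hours. Endpoints are linearly interpolated between the surrounding concentrations. Here, GI50 denotes the concentration required for 50% inhibition of growth. TGI marks complete inhibition of growth.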

Legend:
Test in all cases: NCI-60 cell line screen, 48 h
[1] = system: OVCAR-3 ovarian
[2] = system: OVCAR-5 ovarian
[3] = system: COLO 205 colon
[4] = system: RPMI-8226 leukemia
[5] = system: MDA-MB-231 breast
[6] = system: HOP-62 NSCLC
[7] = system: A498 renal
[8] = system: HCT-15 colon
[9] = system: NCI-H23 lung
[10] = system: SF-268 CNS
[11] = system: MOLT-4 leukemia
[12] = system: SW-620 colon
[13] = system: SN12C renal
[14] = system: HCT-116 colon
[15] = system: A549 NSCLC
[16] = system: UACC-257 melanoma
[17] = system: ACHN renal
[18] = system: OVCAR-4 ovarian
[19] = system: IGROV1 ovarian
[20] = system: T-47D breast
[21] = system: MDA-MB-435
[22] = system: SK-MEL-2 melanoma
[23] = system: KM12 colon
[24] = system: EKVX NSCLC
[25] = system: DU-145 prostate
[26] = system: SK-OV-3 ovarian
[27] = system: NCI/ADR-RES ovarian
[28] = system: HOP-92 NSCLC
[29] = system: SR leukemia
[30] = system: K-562 leukemia
[31] = system: UO-31 renal
[32] = system: SK-MEL-5 melanoma
[33] = system: MALME-3M melanoma
[34] = system: PC-3 prostate
[35] = system: SF-539 CNS
[36] = system: OVCAR-8 ovarian
[37] = system: CAKI-1 renal
[38] = system: RXF 393 renal
[39] = system: SNB-19 CNS
[40] = system: NCI-H226 lung
[41] = system: HCC-2998 colon
[42] = system: HS 578T breast
[43] = system: M14 melanoma
[44] = system: HL-60(TB) leukemia
[45] = system: TK-10 renal
[46] = system: BT-549 breast
[47] = system: HT29 colon
[48] = system: CCRF-CEM leukemia
[49] = system: SK-MEL-28 melanoma
[50] = system: MCF7 breast
[51] = system: UACC-62 melanoma
[52] = system: SF-295 CNS
[53] = system: U251 CNS
[54] = system: NCI-H460 lung
[55] = system: SNB-75 CNS
[56] = system: 786-0 renal
[57] = system: NCI-H522 lung

C#C[C@]1(O)CC[C@H]2[C@@H]3CC=C4c5sc(Nc6cc(C)cc(C)c6)nc5CC[C@]4(C)[C@H]3CC[C@@]21C
GI50 [1]: 3.59 µM | TGI [1]: 16.9 µM | GI50 [2]: 3.69 µM | TGI [2]: 15.8 µM | GI50 [3]: 2.42 µM | TGI [3]: 5.9 µM | GI50 [4]: 0.272 µM | TGI [4]: 0.823 µM | GI50 [5]: 2.96 µM | TGI [5]: 15.1 µM | GI50 [6]: 2.55 µM | TGI [6]: 20.1 µM | GI50 [7]: 0.791 µM | TGI [7]: 2.98 µM | GI50 [8]: 1.88 µM | TGI [8]: 5.58 µM | GI50 [9]: 2.87 µM | TGI [9]: 17 µM | GI50 [10]: 2.54 µM | TGI [10]: 20.2 µM | GI50 [11]: 0.555 µM | TGI [11]: 5.83 µM | GI50 [12]: 2.12 µM | TGI [12]: 4.89 µM | GI50 [13]: 8.38 µM | TGI [13]: 30.5 µM | GI50 [14]: 1.98 µM | TGI [14]: 10.1 µM | GI50 [15]: 4.08 µM | TGI [15]: 28.5 µM | GI50 [16]: 3.07 µM | TGI [16]: 21.7 µM | GI50 [17]: 3.72 µM | TGI [17]: 20.5 µM | GI50 [18]: 4.63 µM | TGI [18]: > 100 µM | GI50 [19]: 4.85 µM | TGI [19]: 60.6 µM | GI50 [20]: 3.4 µM | TGI [20]: 85.8 µM | GI50 [21]: 2.83 µM | TGI [21]: 12.4 µM | GI50 [22]: 1.46 µM | TGI [22]: 10.3 µM | GI50 [23]: 2.6 µM | TGI [23]: 8.05 µM | GI50 [24]: 3.12 µM | TGI [24]: 31.3 µM | GI50 [25]: 4.18 µM | TGI [25]: 21.8 µM | GI50 [26]: 2.23 µM | TGI [26]: 7.94 µM | GI50 [27]: 4.86 µM | TGI [27]: 45.5 µM | GI50 [28]: 3.17 µM | TGI [28]: 13.6 µM | GI50 [29]: 1.17 µM | TGI [29]: 5.88 µM | GI50 [30]: 1.58 µM | TGI [30]: 4.33 µM | GI50 [31]: 2.72 µM | TGI [31]: 9.7 µM | GI50 [32]: 1.65 µM | TGI [32]: 3.15 µM | GI50 [33]: 1.87 µM | TGI [33]: 5.6 µM | GI50 [34]: 1.53 µM | TGI [34]: 11.9 µM | GI50 [35]: 0.392 µM | TGI [35]: 1.71 µM | GI50 [36]: 7.08 µM | TGI [36]: > 100 µM | GI50 [37]: 2.69 µM | TGI [37]: 15 µM | GI50 [38]: 0.142 µM | TGI [38]: 0.428 µM | GI50 [39]: 2 µM | TGI [39]: 11.6 µM | GI50 [40]: 2.29 µM | TGI [40]: 7.99 µM | GI50 [41]: 5.47 µM | TGI [41]: 23 µM | GI50 [42]: 0.526 µM | TGI [42]: 5.89 µM | GI50 [43]: 1.58 µM | TGI [43]: 6.87 µM | GI50 [44]: 1.29 µM | TGI [44]: 5.55 µM | GI50 [45]: 9.87 µM | TGI [45]: 36.5 µM | GI50 [46]: 0.556 µM | TGI [46]: 5.82 µM | GI50 [47]: 1.65 µM | TGI [47]: 4.32 µM | GI50 [48]: 1.7 µM | TGI [48]: 8.43 µM | GI50 [49]: 1.07 µM | TGI [49]: 2.95 µM | GI50 [50]: 1.61 µM | TGI [50]: 6.22 µM | GI50 [51]: 1.69 µM | TGI [51]: 4.1 µM | GI50 [52]: 0.297 µM | TGI [52]: 0.966 µM | GI50 [53]: 1.09 µM | TGI [53]: 18.4 µM | GI50 [54]: 2.72 µM | TGI [54]: 13 µM | GI50 [55]: 0.547 µM | TGI [55]: 7.91 µM | GI50 [56]: 0.429 µM | TGI [56]: 2.28 µM

Cc1ccc(-c2nnc(SCc3ccc(O)c4ncccc34)o2)cc1
GI50 [2]: 4.82 µM | TGI [2]: > 100 µM | GI50 [3]: 8.41 µM | TGI [3]: > 100 µM | GI50 [4]: 0.648 µM | TGI [4]: > 100 µM | GI50 [5]: 2.12 µM | TGI [5]: 27.5 µM | GI50 [6]: 1.06 µM | TGI [6]: 3.83 µM | GI50 [7]: 1.08 µM | TGI [7]: 13.6 µM | GI50 [8]: 0.492 µM | TGI [8]: > 100 µM | GI50 [9]: 1.47 µM | TGI [9]: 13 µM | GI50 [10]: 0.503 µM | TGI [10]: > 100 µM | GI50 [11]: 0.877 µM | TGI [11]: > 100 µM | GI50 [12]: 1.06 µM | TGI [12]: > 100 µM | GI50 [13]: 0.966 µM | TGI [13]: > 100 µM | GI50 [14]: 0.537 µM | TGI [14]: > 100 µM | GI50 [15]: 1.95 µM | TGI [15]: > 100 µM | GI50 [16]: 2.33 µM | TGI [16]: 9.3 µM | GI50 [17]: 0.649 µM | TGI [17]: 2.32 µM | GI50 [18]: 2.45 µM | TGI [18]: > 100 µM | GI50 [19]: 1.55 µM | TGI [19]: 9.86 µM | GI50 [20]: 1.83 µM | TGI [20]: 7.4 µM | GI50 [21]: 0.5 µM | TGI [21]: > 100 µM | GI50 [22]: 2.24 µM | TGI [22]: 39.4 µM | GI50 [23]: 1.91 µM | TGI [23]: > 100 µM | GI50 [24]: 1.73 µM | TGI [24]: 9.86 µM | GI50 [25]: 1.46 µM | TGI [25]: > 100 µM | GI50 [26]: 1.98 µM | TGI [26]: 6.9 µM | GI50 [27]: 0.706 µM | TGI [27]: 7.02 µM | GI50 [28]: 0.435 µM | TGI [28]: 4.08 µM | GI50 [29]: 0.568 µM | TGI [29]: 42.7 µM | GI50 [30]: 1.14 µM | TGI [30]: 66.3 µM | GI50 [31]: 0.567 µM | TGI [31]: 3.24 µM | GI50 [32]: 0.844 µM | TGI [32]: 6.95 µM | GI50 [33]: 1.96 µM | TGI [33]: 8.23 µM | GI50 [34]: 0.457 µM | TGI [34]: > 100 µM | GI50 [35]: 0.561 µM | TGI [35]: 5.92 µM | GI50 [36]: 0.85 µM | TGI [36]: > 100 µM | GI50 [37]: 1.8 µM | TGI [37]: 7.72 µM | GI50 [38]: 1.12 µM | TGI [38]: 32.2 µM | GI50 [39]: 0.513 µM | TGI [39]: 14.3 µM | GI50 [40]: 2.42 µM | TGI [40]: > 100 µM | GI50 [41]: 0.933 µM | TGI [41]: > 100 µM | GI50 [42]: 0.57 µM | TGI [42]: > 100 µM | GI50 [43]: 0.816 µM | TGI [43]: 5.49 µM | GI50 [44]: 0.52 µM | TGI [44]: 10.2 µM | GI50 [45]: 1.28 µM | TGI [45]: 9.24 µM | GI50 [46]: 1.06 µM | TGI [46]: > 100 µM | GI50 [47]: 6.43 µM | TGI [47]: > 100 µM | GI50 [48]: 0.518 µM | TGI [48]: > 100 µM | GI50 [49]: 1.04 µM | TGI [49]: > 100 µM | GI50 [50]: 0.388 µM | TGI [50]: > 100 µM | GI50 [57]: 2.29 µM | TGI [57]: > 100 µM | GI50 [51]: 1.76 µM | TGI [51]: 4.74 µM | GI50 [52]: 1.02 µM | TGI [52]: 5.78 µM | GI50 [53]: 0.444 µM | TGI [53]: > 100 µM | GI50 [55]: 0.283 µM | TGI [55]: 3.93 µM | GI50 [56]: 1.61 µM | TGI [56]: 6.81 µM
